Test results: US20160108049A1 (TAKEDA Gmbh, priority 2011, published 2016)

Legend:
PDE4B1 = target: T1, PDE4B1 (Homo sapiens, UniProt Q07343); experiment: Inhibition of PDE4 activity (PDE4B1, SPA assay); assay type: biochemical; conditions: recombinant PDE4B1, 0.5 μM cAMP; read-out: PDE4B1 Inhibitory values measured as -logIC50 (converted)
T1 construct: made in house; host or cells: SF21 insect cells (baculovirus; virus made in SF9 cells, pCR-Bac vector)
Summary of the method: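 Read-out is SPA yttrium silicate bead scintillation after IBMX-containing beads stop the reaction. Insect-cell (SF21) lysate enzyme hydrolysed 0.5 μM [3H]cAMP at pH 7.4 with 5 mM Mg2+ for 15 min after a 5 min 37 °C preincubation; IC50 fitted by non-linear regression.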

human PDE5 = target: T2, human PDE5 (Homo sapiens, UniProt O76074); experiment: Inhibition of PDE5 activity (platelet lysate, SPA assay); assay type: biochemical; conditions: 0.5 μM cGMP, read-out: PDE5 Inhibitory values measured as -logIC50 (converted)
T2 construct: from tissue; host or cells: human platelets from fresh donor blood (platelet lysate)
Summary of the method: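 SPA readout of [3H]cGMP hydrolysis (0.5 μM, 15 min, 37 °C after 5 min preincubation), stopped with yttrium silicate beads containing IBMX. Enzyme was lysate from human platelets, used at 10–20% substrate turnover, with PDE3 (motapizone 1 μM) and PDE2 (10 nM) blockers present. IC50 values fitted non-linearly from concentration-effect curves.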

T1 sequence (Q07343 whole entry): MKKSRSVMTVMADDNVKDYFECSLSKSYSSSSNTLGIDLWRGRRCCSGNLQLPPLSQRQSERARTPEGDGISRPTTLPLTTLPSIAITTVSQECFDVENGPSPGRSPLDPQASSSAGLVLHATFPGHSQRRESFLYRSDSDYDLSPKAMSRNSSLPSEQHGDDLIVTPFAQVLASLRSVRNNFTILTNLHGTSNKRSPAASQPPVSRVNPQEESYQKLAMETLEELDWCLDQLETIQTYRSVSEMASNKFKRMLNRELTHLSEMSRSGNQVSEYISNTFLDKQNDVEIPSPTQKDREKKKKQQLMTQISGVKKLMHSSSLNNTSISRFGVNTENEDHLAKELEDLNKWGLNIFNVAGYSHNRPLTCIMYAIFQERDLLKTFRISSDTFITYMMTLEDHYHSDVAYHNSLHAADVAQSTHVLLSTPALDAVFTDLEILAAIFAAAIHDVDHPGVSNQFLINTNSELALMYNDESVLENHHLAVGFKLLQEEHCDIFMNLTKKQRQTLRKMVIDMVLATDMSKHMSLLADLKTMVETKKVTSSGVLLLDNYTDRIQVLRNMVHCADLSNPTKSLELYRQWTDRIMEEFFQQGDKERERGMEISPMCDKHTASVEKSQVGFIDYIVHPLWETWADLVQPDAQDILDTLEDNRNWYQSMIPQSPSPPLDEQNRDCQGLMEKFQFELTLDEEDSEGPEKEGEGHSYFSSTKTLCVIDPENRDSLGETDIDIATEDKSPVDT

Row | IC50 (PDE4B1) [nM] | IC50 (human PDE5) [nM] | Compound
1 | < 1 | < 1 | COc1ccc(C2=NN(C3CCN(C(=O)[C@@H](NC(=O)c4c[nH]c5c(-c6c(OCC7CC7)ccc7c6OCO7)ncnc45)[C@@H](C)O)CC3)C(=O)[C@@H]3CCCC[C@H]23)cc1OC [Example 63, 4-[5-(cyclopropylmethoxy)-1,3-benzodioxol-4-yl]-N-[(2S,3R)-1-{4-[(4aS,8aR)-4-(3,4-dimethoxyphenyl)-1-oxo-4a,5,6,7,8,8a-hexahydrophthalazin-2(1H)-yl]piperidin-1-yl}-3-hydroxy-1-oxobutan-2-yl]-5H-pyrrolo[3,2-d]pyrimidine-7-carboxamide]
2 | 1 to 10 | 1 to 10 | COc1ccc(C2=NN(C3CCN(C(=O)[C@H](CCC(=O)OCc4ccccc4)NC(=O)c4c[nH]c5c(-c6c(OCC7CC7)ccc7c6OCO7)ncnc45)CC3)C(=O)[C@@H]3CCCC[C@H]23)cc1OC [Example 104, Benzyl (4S)-4-[({4-[5-(cyclopropylmethoxy)-1,3-benzodioxol-4-yl]-5H-pyrrolo[3,2-d]pyrimidin-7-yl}carbonyl)amino]-5-{4-[(4aS,8aR)-4-(3,4-dimethoxyphenyl)-1-oxo-4a,5,6,7,8,8a-hexahydrophthalazin-2(1H)-yl]piperidin-1-yl}-5-oxopentanoate]
3 | 1 to 10 | 1 to 10 | COc1cc(OCC2CC2)c(-c2ncnc3c(C(=O)N[C@H](Cc4ccccc4)C(=O)N4CCC(N5N=C(c6ccc(OC)c(OC)c6)CC(C)(C)C5=O)CC4)c(C)[nH]c23)cc1F [Example 69, 4-[2-(cyclopropylmethoxy)-5-fluoro-4-methoxyphenyl]-N-[(2R)-1-{4-[3-(3,4-dimethoxyphenyl)-5,5-dimethyl-6-oxo-5,6-dihydropyridazin-1(4H)-yl]piperidin-1-yl}-1-oxo-3-phenylpropan-2-yl]-6-methyl-5H-pyrrolo[3,2-d]pyrimidine-7-carboxamide]
4 | < 1 | < 1 | COc1ccc(C2=NN(C3CCN(C(=O)[C@H](Cc4c[nH]cn4)NC(=O)c4c[nH]c5c(-c6c(OCC7CC7)ccc7c6OCO7)ncnc45)CC3)C(=O)[C@@H]3CCCC[C@H]23)cc1OC [Example 90, 4-[5-(cyclopropylmethoxy)-1,3-benzodioxol-4-yl]-N-[(2S)-1-{4-[(4aS,8aR)-4-(3,4-dimethoxyphenyl)-1-oxo-4a,5,6,7,8,8a-hexahydrophthalazin-2(1H)-yl]piperidin-1-yl}-3-(1H-imidazol-4-yl)-1-oxopropan-2-yl]-5H-pyrrolo[3,2-d]pyrimidine-7-carboxamide]
5 | 1 to 10 | 1 to 10 | COc1ccc(C2=NN(C3CCN(C(=O)[C@H](CCC(=O)NC(C)C)NC(=O)c4c[nH]c5c(-c6c(OCC7CC7)ccc7c6OCO7)ncnc45)CC3)C(=O)[C@@H]3CCCC[C@H]23)cc1OC [Example 106, 4-[5-(cyclopropylmethoxy)-1,3-benzodioxol-4-yl]-N-[(2S)-1-{4-[(4aS,8aR)-4-(3,4-dimethoxyphenyl)-1-oxo-4a,5,6,7,8,8a-hexahydrophthalazin-2(1H)-yl]piperidin-1-yl}-1,5-dioxo-5-(propan-2-ylamino)pentan-2-yl]-5H-pyrrolo[3,2-d]pyrimidine-7-carboxamide]
6 | 1 to 10 | 1 to 10 | COc1ccc(C2=NN(C3CCN(C(=O)C[C@@H](Cc4ccccc4)NC(=O)c4c[nH]c5c(-c6c(OCC7CC7)ccc7c6OCO7)ncnc45)CC3)C(=O)C(C)(C)C2)cc1OC [Example 78, 4-[5-(cyclopropylmethoxy)-1,3-benzodioxol-4-yl]-N-[(2R)-4-{4-[3-(3,4-dimethoxyphenyl)-5,5-dimethyl-6-oxo-5,6-dihydropyridazin-1(4H)-yl]piperidin-1-yl}-4-oxo-1-phenylbutan-2-yl]-5H-pyrrolo[3,2-d]pyrimidine-7-carboxamide]
7 | < 1 | 1 to 10 | COc1ccc(C2=NN(C3CCN(C(=O)[C@H](C)NC(=O)c4c[nH]c5c(-c6c(OCC7CC7)ccc7c6OCO7)ncnc45)CC3)C(=O)[C@@H]3CCCC[C@H]23)cc1OC [Example 61, 4-[5-(cyclopropylmethoxy)-1,3-benzodioxol-4-yl]-N-[(2S)-1-{4-[(4aS,8aR)-4-(3,4-dimethoxyphenyl)-1-oxo-4a,5,6,7,8,8a-hexahydrophthalazin-2(1H)-yl]piperidin-1-yl}-1-oxopropan-2-yl]-5H-pyrrolo[3,2-d]pyrimidine-7-carboxamide]
8 | 1 to 10 | 1 to 10 | COc1ccc(C2=NN(C3CCN(C(=O)[C@@H](CCC(=O)NC(C)C)NC(=O)c4c[nH]c5c(-c6c(OCC7CC7)ccc7c6OCO7)ncnc45)CC3)C(=O)[C@@H]3CCCC[C@H]23)cc1OC [Example 107, 4-[5-(cyclopropylmethoxy)-1,3-benzodioxol-4-yl]-N-[(2R)-1-{4-[(4aS,8aR)-4-(3,4-dimethoxyphenyl)-1-oxo-4a,5,6,7,8,8a-hexahydrophthalazin-2(1H)-yl]piperidin-1-yl}-1,5-dioxo-5-(propan-2-ylamino)pentan-2-yl]-5H-pyrrolo[3,2-d]pyrimidine-7-carboxamide]
9 | < 1 | 1 to 10 | COc1ccc(C2=NN(C3CCN(C(=O)[C@@H](Cc4cn(C)c5ccccc45)NC(=O)c4c[nH]c5c(-c6c(OCC7CC7)ccc7c6OCO7)ncnc45)CC3)C(=O)[C@@H]3CCCC[C@H]23)cc1OC [Example 93, 4-[5-(cyclopropylmethoxy)-1,3-benzodioxol-4-yl]-N-[(2R)-1-{4-[(4aS,8aR)-4-(3,4-dimethoxyphenyl)-1-oxo-4a,5,6,7,8,8a-hexahydrophthalazin-2(1H)-yl]piperidin-1-yl}-3-(1-methyl-1H-indol-3-yl)-1-oxopropan-2-yl]-5H-pyrrolo[3,2-d]pyrimidine-7-carboxamide]

The remaining lines, values behind:

Row | Compound | IC50 (PDE4B1) [nM] | IC50 (human PDE5) [nM]
10 | COc1ccc(C2=NN(C3CCN(C(=O)[C@@H](Cc4ccccc4C(F)(F)F)NC(=O)c4c(C)[nH]c5c(-c6c(OCC7CC7)ccc7c6OCO7)ncnc45)CC3)C(=O)[C@@H]3CCCC[C@H]23)cc1OC [Example 32, 4-[5-(cyclopropylmethoxy)-1,3-benzodioxol-4-yl]-N-{(2R)-1-{4-[(4aS,8aR)-4-(3,4-dimethoxyphenyl)-1-oxo-4a,5,6,7,8,8a-hexahydrophthalazin-2(1H)-yl]piperidin-1-yl}-1-oxo-3-[2-(trifluoromethyl)phenyl]propan-2-yl}-6-methyl-5H-pyrrolo[3,2-d]pyrimidine-7-carboxamide] | 1 to 10 | 1 to 10
11 | COc1ccc(C2=NN(C3CCN(C(=O)[C@@H](Cc4cccc(Cl)c4)NC(=O)c4c[nH]c5c(-c6c(OCC7CC7)ccc7c6OCO7)ncnc45)CC3)C(=O)[C@@H]3CCCC[C@H]23)cc1OC [Example 30, N-[(2R)-3-(3-chlorophenyl)-1-{4-[(4aS,8aR)-4-(3,4-dimethoxyphenyl)-1-oxo-4a,5,6,7,8,8a-hexahydrophthalazin-2(1H)-yl]piperidin-1-yl}-1-oxopropan-2-yl]-4-[5-(cyclopropylmethoxy)-1,3-benzodioxol-4-yl]-5H-pyrrolo[3,2-d]pyrimidine-7-carboxamide] | 1 to 10 | 1 to 10
12 | COc1ccc(C2=NN(C3CCN(C(=O)[C@H](NC(=O)c4c(C)[nH]c5c(-c6c(OCC7CC7)ccc7c6OCO7)ncnc45)[C@H](C)c4ccccc4)CC3)C(=O)[C@@H]3CCCC[C@H]23)cc1OC [Example 51, 4-[5-(cyclopropylmethoxy)-1,3-benzodioxol-4-yl]-N-[(2R,3R)-1-{4-[(4aS,8aR)-4-(3,4-dimethoxyphenyl)-1-oxo-4a,5,6,7,8,8a-hexahydrophthalazin-2(1H)-yl]piperidin-1-yl}-1-oxo-3-phenylbutan-2-yl]-6-methyl-5H-pyrrolo[3,2-d]pyrimidine-7-carboxamide] | < 1 | 1 to 10
13 | COc1ccc(C2=NN(C3CCN(C(=O)[C@@H](Cc4cccc(C)c4)NC(=O)c4c(C)[nH]c5c(-c6c(OCC7CC7)ccc7c6OCO7)ncnc45)CC3)C(=O)[C@@H]3CCCC[C@H]23)cc1OC [Example 17, 4-[5-(cyclopropylmethoxy)-1,3-benzodioxol-4-yl]-N-[(2R)-1-{4-[(4aS,8aR)-4-(3,4-dimethoxyphenyl)-1-oxo-4a,5,6,7,8,8a-hexahydrophthalazin-2(1H)-yl]piperidin-1-yl}-3-(3-methylphenyl)-1-oxopropan-2-yl]-6-methyl-5H-pyrrolo[3,2-d]pyrimidine-7-carboxamide] | < 1 | < 1
14 | COc1ccc(C2=NN(C3CCN(C(=O)[C@H](Cc4cccc(C)c4)NC(=O)c4c[nH]c5c(-c6c(OCC7CC7)ccc7c6OCO7)ncnc45)CC3)C(=O)[C@@H]3CCCC[C@H]23)cc1OC [Example 3, 4-[5-(cyclopropylmethoxy)-1,3-benzodioxol-4-yl]-N-[(2S)-1-{4-[(4aS,8aR)-4-(3,4-dimethoxyphenyl)-1-oxo-4a,5,6,7,8,8a-hexahydrophthalazin-2(1H)-yl]piperidin-1-yl}-3-(3-methylphenyl)-1-oxopropan-2-yl]-5H-pyrrolo[3,2-d]pyrimidine-7-carboxamide] | < 1 | 1 to 10
15 | COc1ccc(C2=NN(C3CCN(C(=O)[C@H](Cc4cccnc4)NC(=O)c4c[nH]c5c(-c6c(OCC7CC7)ccc7c6OCO7)ncnc45)CC3)C(=O)[C@@H]3CCCC[C@H]23)cc1OC [Example 43, 4-[5-(cyclopropylmethoxy)-1,3-benzodioxol-4-yl]-N-[(2S)-1-{4-[(4aS,8aR)-4-(3,4-dimethoxyphenyl)-1-oxo-4a,5,6,7,8,8a-hexahydrophthalazin-2(1H)-yl]piperidin-1-yl}-1-oxo-3-(pyridin-3-yl)propan-2-yl]-5H-pyrrolo[3,2-d]pyrimidine-7-carboxamide] | < 1 | < 1
